Assay: method code SF, from Suwinski, J.; Salwinska, E.; Watras, J.; Widel, M. (1985). Nitroimidazoles. VI. Partition coefficients and tautomerism of simple nitroimidazoles. 42(4)352-358.

Work on `Cc1nc(Br)c([N+](=O)[O-])n1C` yielded a logP of 0.87.

Molecule `Cn1cncc1[N+](=O)[O-]` has a logP of 0.13.

`COc1[nH]c(C)nc1[N+](=O)[O-]` gave a logP of 0.21.

Molecule `O=[N+]([O-])c1ncc[nH]1` has a logP of 0.11.

In the case of `COc1c([N+](=O)[O-])ncn1C`, the logP is reported as 0.19.

`Cc1nc([N+](=O)[O-])cn1C` showed a logP of -0.24.

`Cc1nc([N+](=O)[O-])c(Br)n1C` showed a logP of 0.44.

With `Cn1c([N+](=O)[O-])cnc1Cl` the logP was 0.62.

`Cc1c([N+](=O)[O-])ncn1C` gave a logP of -0.11.

Work on `Cn1cnc([N+](=O)[O-])c1N` yielded a logP of -1.

`Cn1cnc(Br)c1[N+](=O)[O-]` showed a logP of 0.77.

With `Cc1[nH]c(Br)nc1[N+](=O)[O-]` the logP was 0.86.

Work on `Cn1cnc(Cl)c1[N+](=O)[O-]` yielded a logP of 0.69.

With `Cn1cc([N+](=O)[O-])nc1Br` the logP was 0.33.

With `COc1[nH]cnc1[N+](=O)[O-]` the logP was 0.13.

For `Cc1nc([N+](=O)[O-])c(Cl)n1C`, the logP was 0.34.

In the case of `Cc1nc(Cl)c([N+](=O)[O-])n1C`, the logP is reported as 0.87.

In the case of `O=[N+]([O-])c1[nH]cnc1Br`, the logP is reported as 0.78.

Molecule `Cn1cnc([N+](=O)[O-])c1` has a logP of -0.44.

In the case of `Cn1ccnc1[N+](=O)[O-]`, the logP is reported as -0.17.

Molecule `Cc1nc([N+](=O)[O-])c(Br)[nH]1` has a logP of 1.14.

In the case of `Cn1cnc([N+](=O)[O-])c1Br`, the logP is reported as 0.36.

Work on `Cn1cc([N+](=O)[O-])nc1Cl` yielded a logP of 0.19.

With `Cc1[nH]cnc1[N+](=O)[O-]` the logP was 0.23.

For `COc1c([N+](=O)[O-])nc(C)n1C`, the logP was -0.09.

`Cc1c([N+](=O)[O-])nc(Br)n1C` gave a logP of 0.39.

`Cc1nc([N+](=O)[O-])c(Cl)[nH]1` showed a logP of 1.06.

`Cc1nc([N+](=O)[O-])c(N)n1C` gave a logP of -1.1.

`Cc1nc(Br)n(C)c1[N+](=O)[O-]` gave a logP of 0.82.

Source: the SangsterLogP compilation
